Measurements: patent publication US20070161655A1, “Fungicidal mixtures” (BASF Aktiengesellschaft, priority 2004, published 2007)

System: Corticium sasakii
Test: Activity against sheath blight on rice caused by Corticium sasakii (protective spray, rice plants cultivar Tai-Nong 67)
Type: in vivo
Details: individual active compound, evaluated after 11 days, untreated control 85% infection
Protocol: The active compounds, separately or jointly, were prepared as a stock solution comprising 0.25% by weight of active compound in acetone or DMSO. 1% by weight of the emulsifier Uniperol® EL (wetting agent having emulsifying and dispersing action based on ethoxylated alkylphenols) was added to this solution, and the mixture was appropriately diluted with water to the desired concentration.
Pots of rice plants of the cultivar “Tai-Nong 67” were sprayed to runoff point with an aqueous suspension having the concentration of active compound stated below. The next day, oat grains infected with Corticium sasakii were planted in the pots (in each case 5 grains per pot). The plants were then placed in a chamber at 26° C. and maximum atmospheric humidity. After 11 days, the sheath blight on the untreated but infected control plants had developed to such an extent that the infection could be determined visually in %.
Evaluation is carried out by determining the infected leaf areas in percent. These percentages were converted into efficacies.
The efficacy (E) is calculated as follows using Abbot's formula: E=(1−α/β)·100 • α corresponds to the fungal infection of the treated plants in % and • β corresponds to the fungal infection of the untreated (control) plants in %
An efficacy of 0 means that the infection level of the treated plants corresponds to that of the untreated control plants; an efficacy of 100 means that the treated plants are not infected.
The expected efficacies of the mixtures of active compounds are determined using Colby's formula [R. S. Colby, Weeds, 15, 20-22 (1967)] and are compared with the observed efficacies.
Colby's formula: E=x+y−x·y/100 • expected efficacy, expressed in % of the untreated control, when using the mixture of the active compounds A and B at the concentrations a and b • x efficacy, expressed in % of the untreated control, when using the active compound A at the concentration a
y efficacy, expressed in % of the untreated control, when using the active compound B at the concentration b

Structure (SMILES) | Efficacy in % of the untreated control (4 ppm in the spray liquor) [%] | Efficacy in % of the untreated control (16 ppm in the spray liquor) [%]
CN(C)S(=O)(=O)N(SC(F)(Cl)Cl)c1ccccc1 [II (dichlofluanid), N-dichlorofluoromethylthio-N′,N′-dimethyl-N-phenylsulfonamide] | 0 | 0
CC1CCN(c2c(-c3c(F)cc(F)cc3F)c(Cl)nc3ncnn23)CC1 [I, 5-chloro-7-(4-methylpiperidin-1-yl)-6-(2,4,6-trifluorophenyl)-[1,2,4]triazolo[1,5-a]pyrimidine] | 30 | 65
